Key:
E. coli = assay: Intraruminal sodium chlorate in cattle: ruminal and fecal E. coli viable cell counts on MacConkey agar; type: in vivo; settings: for Mean ± SD (n = 2) fecal EC concentration / Mean ± SD (n = 2) ruminal EC concentration: treated (30 mM sodium chlorate intraruminally)
Experimental: Concentrations of E. coli in the ruminal contents and in feces collected from the test animals were determined by viable cell counts on MacConkey agar plates.

culturable anaerobes = assay: Most probable number of culturable anaerobes in ruminal fluid incubated with chlorate; type: cell-based; settings: 5 mM sodium chlorate, anaerobic, 39° C.

## [O-][Cl+2]([O-])O [chlorate, sodium chlorate]
E. coli; fasted and non-fasted, 30 mM sodium chlorate, after 24 hours (compared with 10 hours)
  decrease in ruminal E. coli concentration: significantly greater
E. coli; fasted and non-fasted, 30 mM sodium chlorate, by 10 hours after chlorate administration
  change of ruminal E. coli concentrations from prechlorate levels: decreased only slightly
E. coli; fasted, 0 h post treatment
  Mean ± SD (n = 2) fecal EC concentration: 5.29 ± 0.24 log base 10 CFU/g
  Mean ± SD (n = 2) ruminal EC concentration: 3.62 ± 2.29 log base 10 CFU/g
E. coli; fasted, 10 h post treatment
  Mean ± SD (n = 2) ruminal EC concentration: 3.27 ± 3.21 log base 10 CFU/g
E. coli; fasted, 24 h post treatment
  Mean ± SD (n = 2) fecal EC concentration: 2.33 ± 1.24 log base 10 CFU/g
  Mean ± SD (n = 2) ruminal EC concentration: 2.40 ± 0.20 log base 10 CFU/g
E. coli; nonfasted, 0 h post treatment
  Mean ± SD (n = 2) fecal EC concentration: 5.19 ± 1.68 log base 10 CFU/g
  Mean ± SD (n = 2) ruminal EC concentration: 3.66 ± 1.76 log base 10 CFU/g
E. coli; nonfasted, 10 h post treatment
  Mean ± SD (n = 2) ruminal EC concentration: 2.22 ± 3.14 log base 10 CFU/g
E. coli; nonfasted, 24 h post treatment
  Mean ± SD (n = 2) fecal EC concentration: 2.65 ± 1.91 log base 10 CFU/g
  Mean ± SD (n = 2) ruminal EC concentration: 2.28 ± 1.38 log base 10 CFU/g
Culturable anaerobes
  effect on the most probable number of culturable anaerobes: little effect
